For ten molecules, EC50, Emax and inhibition results are on record in patent US20180221352A1, “3-(1H-PYRROLO[2,3-C]PYRIDIN-2-YL)-1H-PYRAZOLO[3,4-B]PYRIDINES AND THERAPEUTIC USES THEREOF” (Samumed, LLC, priority 2015, published 2018).

In general, inhibition refers to the change of the read-out against control, counted positive when it falls.

Assay type in all cases: cell-based
The test system of assay [1] is primary human mesenchymal stem cells (hMSCs). Nature of the assay: Induction of chondrogenesis in hMSCs (nodule count). As to conditions: 6 days; for EC50: concentration required to induce 50% levels of chondrogenesis vs TGF-β3, read-out: Conc (nM) of 50% TGF-β3 activity; for Emax: relative to TGF-β3 (10 ng/mL) positive control, read-out: Max. Activity as % TGF-β3 activity. The source says:
Representative compounds were screened using primary human mesenchymal stem cells (hMSCs) to determine their ability to induce chondrogenesis (process by which cartilage is developed).
Primary human mesenchymal stem cells (hMSCs) were purchased from Lonza (Walkersville, Md.) and expanded in Mesenchymal Stem Cell Growth Media (Lonza). Cells between passage 3 and 6 were used for the experiments.
To image chondrogenic nodules, the cells were fixed using 4% formaldehyde (Electron Microscopy Sciences), and stained with 2 μg/mL Rhodamine B (Sigma-Aldrich) and 20 μM Nile Red (Sigma-Aldrich) [Johnson K., et. al, A Stem Cell-Based Approach to Cartilage Repair, Science, (2012). […] Number of nodules in each well was normalized to the average of 3 DMSO treated wells on the same plate using Excel (Microsoft Inc.). The normalized averages (fold change over DMSO) of 3 replicate wells for each compound concentration were calculated. Due to solubility limitations of some of the compounds, curve fitting was incomplete leading to inaccurate EC50 determinations.
Using TGF-β3 as a positive control, the concentration of representative compounds required to induce 50% levels of chondrogenesis is reported. In addition, the maximum activity of each compound and the respective dose that each compound reached maximum chondrogenesis activity is reported.

The subject of the next assay is SW480 colon cancer cells. Nature of the assay: Cell viability assay (CellTiter-Blue). As to conditions: Homo sapiens; for EC50: 96 h, SW480 cell viability, four days; for inhibition at 10 µM: SW480, 96 h, read-out: percent inhibition at 10 μM. The procedure, abridged: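 Fluorescence from resazurin reduced to resorufin by metabolically active cells was the read-out, taken after ~3 h with CellTiter-Blue.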
Background: Alamar Blue is a resazurin reagent that responds to reducing activity.

In a further assay the test system is IL-6. As to the kind of experiment: IL-6 inhibition in LPS-stimulated THP-1 cells (HTRF). The settings on record: Homo sapiens; for EC50: THP-1 cells, LPS 500 ng/mL, 22 hours, IL6 HTRF; for inhibition at 10 µM: THP-1, read-out: percent inhibition at 10 μM. In outline:
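Serum-reduced (1% FBS, 24 h) THP-1 cells, 5000/well, exposed to compound 2 h at 37 °C, then stimulated with 500 ng/mL LPS for 22 h. Secreted IL-6 measured by HTRF (665/620 ratio), normalised to DMSO; EC50 by four-parameter fit, duplicates.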

Assay [2] deals with primary human fibroblasts derived from IPF patients (LL29 cells). Nature of the assay: Inhibition of fibrotic process, αSMA staining in TGF-β1 treated fibroblasts. As to conditions: Fibroblast; for EC50: 96 h, LL29 cells, TGF-β1 20 ng/mL, 4 days, % αSMA positive cells; for inhibition at 10 µM: read-out: percent inhibition at 10 μM. In outline: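 LL29 fibroblasts plated in F12 with 1% FBS were stimulated with TGF-β1 alongside compound, with TGF-β1 plus DMSO wells as controls. After 4 days of incubation, SYTOX green was added at 1 μM final for 30 min at room temperature.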

In assay [3] the test system is Wnt activity (Sp5-Luc reporter, SW480 colon carcinoma cells). As to the kind of experiment: Wnt activity screening assay, Sp5-Luc reporter gene in SW480 cells. As to conditions: Homo sapiens; for EC50: Sp5-Luc reporter, SW480 cells, overnight incubation; for inhibition at 10 µM: SW480, read-out: percent inhibition at 10 μM. The procedure, abridged:
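SW480 cells stably carrying a luciferase reporter driven by an Sp5 promoter with eight TCF/LEF sites, plated overnight in 1% FBS medium at 37 °C. Luminescence read with BrightGlo. Signals normalized to DMSO-treated cells; EC50 from four-parameter variable-slope fit.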
For orientation: Reporter assays use an easily measured gene product as a stand-in for the process of interest.

SMILES strings stand for the structures.

With `O=C(Nc1cncc(-c2cnc3[nH]nc(-c4cc5ccncc5[nH]4)c3c2)c1)C1CCCCC1` [Compound 275, N-(5-(3-(1H-Pyrrolo[2,3-c]pyridin-2-yl)-1H-pyrazolo[3,4-b]pyridin-5-yl)pyridin-3-yl)cyclohexanecarboxamide], the EC50 in assay [1] worked out at 2700 nM; in the assay on SW480 colon cancer cells it was 3430 nM; in the assay on IL-6 it was 395 nM; in assay [2], 1700 nM; in assay [3], 3580 nM. In addition, the Emax in assay [1] was determined as 291%.

As for `CC(C)CC(=O)Nc1cncc(-c2cnc3[nH]nc(-c4cc5c(-c6cc(F)cc(CNS(C)(=O)=O)c6)cncc5[nH]4)c3c2)c1` [Compound 478, N-(5-(3-(4-(3-Fluoro-5-(methylsulfonamidomethyl)phenyl)-1H-pyrrolo[2,3-c]pyridin-2-yl)-1H-pyrazolo[3,4-b]pyridin-5-yl)pyridin-3-yl)-3-methylbutanamide], the Emax in assay [1] turned out to be 46%. Also, the EC50 is 7200 nM in the assay with SW480 colon cancer cells, 1170 nM in the assay on IL-6, > 10000 nM in assay [2] and 2550 nM in assay [3]. Also, in assay [2], the inhibition at 10 µM is 21.2%.

As to `CS(=O)(=O)NCc1cc(F)cc(-c2cncc3[nH]c(-c4n[nH]c5ncc(-c6cccnc6)cc45)cc23)c1` [Compound 480, N-(3-Fluoro-5-(2-(5-(pyridin-3-yl)-1H-pyrazolo[3,4-b]pyridin-3-yl)-1H-pyrrolo [2,3-c]pyridin-4-yl)benzyl)methane sulfonamide], the EC50 in assay [1] is 2700 nM; with SW480 colon cancer cells, 3650 nM; in the assay with IL-6, 237 nM; in assay [2] it was 2240 nM; in assay [3], 1460 nM. Further, in assay [1], the Emax was found to be 66%.

Consider `CCNCc1cncc(-c2cnc3[nH]nc(-c4cc5c(-c6cc(F)cc(CNS(C)(=O)=O)c6)cncc5[nH]4)c3c2)c1` [Compound 482, N-(3-(2-(5-(5-((Ethylamino)methyl)pyridin-3-yl)-1H-pyrazolo[3,4-b]pyridin-3-yl)-1H-pyrrolo[2,3-c]pyridin-4-yl)-5-fluorobenzyl)methanesulfonamide], for which the Emax in assay [1] was determined as 43%. Moreover, the EC50 in the assay with SW480 colon cancer cells was > 10000 nM; in the assay with IL-6, > 10000 nM; in assay [2], 5030 nM; in assay [3], > 10000 nM. Moreover, the inhibition at 10 µM amounted to 7% with SW480 colon cancer cells, 47.9% in the assay on IL-6 and 12.8% in assay [3].

For the molecule `CC(C)C(=O)Nc1cncc(-c2cnc3[nH]nc(-c4cc5c(-c6cc(F)cc(CNS(C)(=O)=O)c6)cncc5[nH]4)c3c2)c1` [Compound 485, N-(5-(3-(4-(3-Fluoro-5-(methylsulfonamidomethyl)phenyl)-1H-pyrrolo[2,3-c]pyridin-2-yl)-1H-pyrazolo[3,4-b]pyridin-5-yl)pyridin-3-yl)isobutyramide], the EC50 was 30 nM in assay [1]; > 10000 nM in the assay with SW480 colon cancer cells; 27 nM in the assay on IL-6; > 10000 nM in assay [2]; > 10000 nM in assay [3]. Besides, the Emax in assay [1] amounted to 60%. Further, the inhibition at 10 µM amounted to 14% in the assay with SW480 colon cancer cells, 0% in assay [2] and 49.8% in assay [3].

As for `CCCC(=O)Nc1cncc(-c2cnc3[nH]nc(-c4cc5c(-c6cc(F)cc(CNS(C)(=O)=O)c6)cncc5[nH]4)c3c2)c1` [Compound 493, N-(5-(3-(4-(3-Fluoro-5-(methylsulfonamidomethyl)phenyl)-1H-pyrrolo[2,3-c]pyridin-2-yl)-1H-pyrazolo[3,4-b]pyridin-5-yl)pyridin-3-yl)butyramide], the Emax in assay [1] was 37%. The EC50 in the assay with SW480 colon cancer cells was > 10000 nM; in the assay with IL-6, 93 nM; in assay [2] it was 8900 nM; in assay [3] it was 1680 nM. In addition, the inhibition at 10 µM in the assay on SW480 colon cancer cells stood at 46.1%.

As to `CS(=O)(=O)NCc1cc(F)cc(-c2cncc3[nH]c(-c4n[nH]c5ncc(-c6cncc(NC(=O)C7CC7)c6)cc45)cc23)c1` [Compound 496, N-(5-(3-(4-(3-Fluoro-5-(methylsulfonamidomethyl)phenyl)-1H-pyrrolo[2,3-c]pyridin-2-yl)-1H-pyrazolo[3,4-b]pyridin-5-yl)pyridin-3-yl)cyclopropanecarboxamide], in assay [1], the Emax turned out to be 23%. For the same molecule, the EC50 with SW480 colon cancer cells is > 10000 nM; with IL-6, 93 nM; in assay [2], 3530 nM; in assay [3], 2630 nM. The inhibition at 10 µM in the assay on SW480 colon cancer cells was 49.3%.

Regarding `CN(C)CCOc1cncc(-c2cnc3[nH]nc(-c4cc5c(-c6ccc(F)cc6)cncc5[nH]4)c3c2)c1` [Compound 531, 2-((5-(3-(4-(4-Fluorophenyl)-1H-pyrrolo[2,3-c]pyridin-2-yl)-1H-pyrazolo [3,4-b]pyridin-5-yl)pyridin-3-yl)oxy)-N,N-dimethylethan-1-amine], the Emax in assay [1] worked out at 28%. In addition, the EC50 in the assay with SW480 colon cancer cells is 3600 nM; in the assay on IL-6, > 10000 nM; in assay [2], > 10000 nM; in assay [3] it was > 10000 nM. Also, the inhibition at 10 µM in the assay on IL-6 worked out at 22.9%; in assay [2], 11.4%; in assay [3] it was 48.5%.

Regarding `Fc1ccccc1-c1cncc2[nH]c(-c3n[nH]c4ncc(-c5cn[nH]c5)cc34)cc12` [Compound 539, 3-(4-(2-Fluorophenyl)-1H-pyrrolo[2,3-c]pyridin-2-yl)-5-(1H-pyrazol-4-yl)-1H-pyrazolo[3,4-b]pyridine], the EC50 was 100 nM in assay [1]; 652 nM with SW480 colon cancer cells; 169 nM in the assay with IL-6; 99 nM in assay [2]; 416 nM in assay [3]. In addition, the Emax in assay [1] is 51%.

With `Cc1ncc(-c2cnc3[nH]nc(-c4cc5c(-c6ccncc6)cncc5[nH]4)c3c2)n1C` [Compound 573, 5-(1,2-Dimethyl-1H-imidazol-5-yl)-3-(4-(pyridin-4-yl)-1H-pyrrolo[2,3-c]pyridin-2-yl)-1H-pyrazolo[3,4-b]pyridine], the EC50 in assay [1] was 10 nM; in the assay on SW480 colon cancer cells, > 10000 nM; in the assay with IL-6 it was > 10000 nM; in assay [2], > 10000 nM; in assay [3], > 10000 nM. The Emax in assay [1] is 194%. The inhibition at 10 µM is 19.8% in the assay on SW480 colon cancer cells, 0% in the assay with IL-6, 46.7% in assay [2] and 7.1% in assay [3].
